Patent publication US6174864A, “Methods for the prevention or treatment of inflammatory bowel diseases” (CCI Corporation, priority 1996, dated 2001)

Legend:
[1] = cited from earlier work; for water-solubility: prior-art compounds
Water-solubility = type: physicochemical; conditions: ratio to that of Trolox
[2] = system: myeloperoxidase (MPO), TNB-induced colitis; assay: MPO activity in intestinal mucous membrane of TNB-induced colitis; type: in vivo, Male Wistar rats; conditions: intraabdominal, daily, one week, normal 0.19, control 0.74
From the text: (§1) The trinitrobenzenesulfonic acid (TNB)-induced colitis is said to resemble the inflammatory bowel disease of man, particularly Crohn's disease. In this model, the myeloperoxidase (MPO) activity, i.e. an index of the humectation of neutrophil into the tissue, prominently increases in the intestinal mucous membrane from the initial stage of the TNB administration onward and thereafter induces full-thickness inflammations inclusive of edama, erosion, and necrosis of the intestinal duct. In this lesion of the mucous membrane, the thiobarbituraic acid (TAB) reaction substance, i.e. an index of the peroxide of lipid, also increases and the antioxidizing substances such as the SOD activity, the glutathionperoxidase (GPx) activity, and α-tocopherol conversely decrease. By the use of this model, the chromanol glucoside was tested for the effect thereof manifested in repressing the lesion of the TNB-induced colitis.
(§2) As the chromanol glucoside, the 2-(α-D-glucopyranosyl) methyl-2,5,7,8-tetramethylchroman-6-ol (TMG) represented by the following formula (3) produced by the method described in Example 1 of JP-A-07-118,287 was thoroughly dissolved in water in varying concentrations of 20 mg/ml, 2 mg/ml, and 0.2 mg/ml to obtain injection grade preparations. [drawing 5]
Male Wistar rats 7 weeks old weighing 190-210 g were divided into groups of six heads. […]
(§3) Of the items of rating mentioned above, the damage score, the TBA reactive substance, and the MPO activity were measured by the following methods.
The determination was carried out in accordance with the o-dianisidine-hydrogen peroxide reaction (J. E. Krrawisz, et al.,: Gastroenterology, 87 (1984) 1344-135). […] In 950 μl of a reaction solution prepared by dissolving 16.7 mg of o-dianidine dihydrochloride in 50 mM of potassium phosphate having a pH of 6.0 and further mixing the resulting solution with 100 μl of an aqueous 0.5% hydrogen peroxide solution, 50 μl of the sample was placed and measured for change in absorbance at a wavelength of 460 nm with a spectrophotometer. […]

TNB-induced colitis = assay: Effect of repressing lesion in TNB-induced colitis (body weight increase, damage score, wet weight of intestine); type: in vivo, Male Wistar rats; conditions: intraabdominal, daily, one week; for Wet weight: intestine, normal 0.58, control 2.6; for Damage score: lesion 0-5 plus adhesion 0-3, normal 0, control 7.25; for Amount of increase in body weight: normal group 93.5, control group 17.5
From the text: as §1, §2
Male Wistar rats 7 weeks old weighing 190-210 g were divided into groups of six heads. To the rats, after 48 hours' fasting, the TBN dissolved in 50% ethanol in a ratio of 120 mg/ml was intestinally administered at a dose of 1 ml/kg. Thereafter, the TMG preparations obtained as described above were administered to the rats intraabdominally at a dose of […] per head daily. After one week of the administration, the rats were rated for increase of body weight, damage score of the intestine in a 8 cm region on the side of the anus, wet weight, TBA reactive substance, and MPO activity.
as §3
The lesion on the intestinal mucous membrane was classified on the six-point (0-5) scale in accordance with the Morris Classification (G. P. Morris, et al.,: Gastoenterology, 96 (1989) 750-803) and the degree of adhesion to the intestinal mucous membrane was classified on the four-point (0-3) scale (0: absence of adhesion, 1: presence of incontinuous adhesion, 2: presence of continuous adhesion, and 3: presence of clots). The sums of these points were used for rating.

ICR type mice = assay: Test for acute toxicity; type: in vivo; conditions: oral, 500 mg/kg in 5% gum arabic solution, one week observation
Description: The preventive and curative agent of this invention for inflammatory bowel diseases was tested for acute toxicity in an effort to confirm the safety thereof. ICR type mice 4-5 weeks old were divided into groups of three heads. The same TMG as mentioned above was suspended as a chromanol glucoside in 5% gum arabic solution. The resultant suspension was orally administered to the rats in a dosage of 500 mg/kg as reduced to TMG, with the rats kept under observation for one week. In this case, 0.3 ml of a 5% gum arabic solution was administered to a control group.

[3] = system: TBA reactive substance (index of the peroxide of lipid), TNB-induced colitis; assay: TBA reactive substance in intestinal mucous membrane of TNB-induced colitis; type: in vivo, Male Wistar rats; conditions: intraabdominal, daily, one week, normal 0.13, control 0.53
From the text: as §1, §2
Male Wistar rats 7 weeks old weighing 190-210 g were divided into groups of six heads. To the rats, after 48 hours' fasting, the TBN dissolved in 50% ethanol in a ratio of 120 mg/ml was intestinally administered at a dose of 1 ml/kg. […]
as §3
The determination was performed in accordance with the method proposed by Ohkawa et al. (H. Ohkawa, et al.: Anal. Biochem., 95 (1979) 351-358). […] The supernatant resulting from the centrifugation was measured for absorbance at a wavelength of 535 nm with a spectrophotometer. […] Based on this calibration curve, the TBA reactive substance of a sample was determined.

In the case of Cc1c(C)c2c(c(C)c1O)CCC(C)(CCCC(C)CCCC(C)CCCC(C)C)O2 (stereo not drawn) [vitamin E, α-tocopherol], the “water-solubility (in words)” value ([1]; prior-art compound) is listed as “not soluble in water”.
For Cc1c(C)c2c(c(C)c1O)CCC(C)(CO)O2 (centres unmarked) [TMC-2-substituted methanol, 2-hydroxymethyl-2,5,7,8-tetramethylchroman-6-ol], the water-solubility [1] is listed as “about 100 mg/100 ml” and the “water-solubility relative to Trolox” value (Water-solubility) is listed as “about 6.3 times”.
For Cc1c(C)c2c(c(C)c1O)CCC(C)(C(=O)O)O2 (centres unmarked) [Trolox, 6-hydroxy-2,5,7,8-tetramethylchroman-2-carboxylic acid], the water-solubility [1] is given as “about 15 mg/100 ml”.
With Cc1c(C)c2c(c(C)c1O)CCC(C)(CO[C@H]1O[C@H](CO)[C@@H](O)[C@H](O)[C@H]1O)O2 (some centres unmarked) [TMG] the MPO activity ([2]; TMG 0.2 mg/ml) was 0.52 U/l/mg protein, the MPO activity ([2]; TMG 2 mg/ml) was 0.64 U/l/mg protein and the MPO activity ([2]; TMG 20 mg/ml) was 0.48 U/l/mg protein. For the same compound, the Wet weight (TNB-induced colitis; TMG 0.2 mg/ml) was 1.06 g/8 cm, the Damage score (TNB-induced colitis; TMG 0.2 mg/ml) was 4.75 and the “Amount of increase in body weight” value (TNB-induced colitis; TMG 0.2 mg/ml) was 63 g/one week. The Wet weight (TNB-induced colitis; TMG 2 mg/ml) was 1.15 g/8 cm, the Damage score (TNB-induced colitis; TMG 2 mg/ml) was 3.75 and the “Amount of increase in body weight” value (TNB-induced colitis; TMG 2 mg/ml) was 64 g/one week. The Wet weight (TNB-induced colitis; TMG 20 mg/ml) was 0.86 g/8 cm, the Damage score (TNB-induced colitis; TMG 20 mg/ml) was 4 and the “Amount of increase in body weight” value (TNB-induced colitis; TMG 20 mg/ml) was 57 g/one week. The “death of mouse in acute toxicity test” value (ICR type mice) was “No case of death”, the TAB reactive substance ([3]; TMG 0.2 mg/ml) was 0.31 ng/mg protein and the TAB reactive substance ([3]; TMG 2 mg/ml) was 0.38 ng/mg protein. It also gave a TAB reactive substance ([3]; TMG 20 mg/ml) of 0.35 ng/mg protein.
